This is an account of results in patent US4181574A, “Production of antibiotics by fermentation of novel strains of Micropolyspora caesia” (priority 1978, dated 1980).

In brackets after ≈: the same amount, converted by molar mass. Counter-ions that a name gives are not always drawn. Like-named read-outs stand apart in the source and are kept apart here.

Data set [1] concerns two anaerobic and one aerobic organisms. Put plainly: Bactericidal activity. Format: cell-based.
Data set [2] can be described thus: Solubility. Format: physicochemical. The note with it: lower alcohols, ethyl acetate, chloroform and benzene.
A short description of data set [3]: Stability in acidic and alkaline solution. The class given is physicochemical. The conditions noted are these: for stability in alkaline solution: relative to acidic.
The subject of data set [4] is various aerobic and anaerobic organisms. Put plainly: Antibacterial spectrum. The conditions noted are these: variety of anaerobic bacteria and some aerobic bacteria.
For data set [5], the system named is C. perfringens or S. pyogenes. Format: in vivo, mice.
For data set [6], the system named is Neisseria meninigitidis A20049. Put plainly: MIC, serial two-fold agar dilution, aerobic bacteria. Format: cell-based.
The test system of data set [7] is aerobic bacteria. Put plainly: antibacterial activity against aerobic bacteria. The class given is cell-based. The conditions noted are these: for activity against usual aerobic organisms: E. coli and K. pneumoniae; for susceptibility of Bacillus species, streptococci, Neisseria meningitidis, N. gonorrhoeae and Hemophilus influenzae: in vitro.
For data set [8], the system named is Neisseria meninigitidis A21496. Put plainly: MIC, serial two-fold agar dilution, aerobic bacteria. Format: cell-based. The note with it: Nm-4, medium B: GC medium (Eiken).
Data set [9] concerns B. fragilis A20928-1. Put plainly: Inoculum size effect on MIC. The class given is cell-based. The note with it: Bacteroides fragilis, A209281, read-out: MIC in GAM broth, GAM broth; inoculum […] 10^6 cell/ml.
In data set [10] the test system is C. perfringens A9635. The class given is in vivo, mice. The note with it: po; 5 days.
Data set [11] has as its system Klebsiella pneumoniae A9678. Put plainly: MIC, serial two-fold agar dilution, aerobic bacteria. The note with it: Kp-2; medium A: Nutrient agar (Eiken). The class given is cell-based.
Data set [12] deals with S. pyogenes A20201. Put plainly: Systemic infection with S. pyogenes in mice. Format: in vivo. The conditions noted are these: po; 5 days.
Data set [13] deals with bacterial RNA polymerase. The conditions noted are these: Antimicrobial Agents and Chemotherapy 1976, page 618; cited from earlier work.
For data set [14], the system named is B. fragilis A20926. Put plainly: Localized infection with B. fragilis in mice. Format: in vivo.
The conditions of data set [15]: subcutaneous and oral.
In data set [16] the test system is Escherichia coli K-12 A9632. Put plainly: MIC, serial two-fold agar dilution, aerobic bacteria. The note with it: K12A9632.
Setting [17] is: Nm-2, medium B: GC medium (Eiken), read-out: MIC.

In the case of `COC(=O)C1C(C)OC2(C)CC(=O)C3OC12OC(C(C)/C=C(C)/C=C/C(=O)C1=C(O)CNC1=O)C3C` (centres unmarked) [Bu-2313B], the “type of antibacterial action” value in data set [1] is on record as “bacteriostatic rather than bactericidal”. Besides, in data set [2], the “solubility in most organic solvents” value was “readily soluble”. In data set [3], the “stability in acidic solution” value was “stable” and the “stability in alkaline solution” value is given as “less so”. For the same compound, the antibacterial activity entry in data set [4] is “exhibit antibacterial activity”. Further, in [5] (both subcutaneous and oral administration), the “protection against systemic infections” value is recorded as “fairly good protection”. Also, the MIC in data set [6] (setting [17]) was 0.8 µg/mL (≈ 1.59 µM). In addition, in [7], the “activity against usual aerobic organisms” value is “only moderate to weak activity”; the “susceptibility of Bacillus species, streptococci, Neisseria meningitidis, N. gonorrhoeae and Hemophilus influenzae” value is reported as “susceptible”. In data set [8], this compound displayed an MIC of 1.6 µg/mL (≈ 3.18 µM).

Turning to `COC(=O)C1C(C)OC2(C)CC(=O)C3OC12OC(C(C)/C=C(C)/C=C/C(=O)C1=C(O)CN(C)C1=O)C3C` (centres unmarked) [Bu-2313A], the “type of antibacterial action” value in [1] is “bacteriostatic rather than bactericidal”. Further, the “solubility in most organic solvents” value in data set [2] was “readily soluble”. The MIC in data set [9] was 0.006 µg/mL (≈ 0.0116 µM); in data set [11] it was “> meningitidis”; in [8] it was 3.1 µg/mL (≈ 5.99 µM). In data set [3], the “stability in acidic solution” value is “stable”. Besides, the “stability in alkaline solution” value in data set [3] is “less so”. Further, the PD50 entry in [10] is recorded as “NA at 50”; in [12], “NA at 25”. In addition, the antibacterial activity result in [4] is “exhibit antibacterial activity”. Further, the “activity by the oral route” value in data set [5] (oral) is “inactive”. In [7], the “activity against usual aerobic organisms” value is “only moderate to weak activity”. In addition, the “susceptibility of Bacillus species, streptococci, Neisseria meningitidis, N. gonorrhoeae and Hemophilus influenzae” value in data set [7] is “susceptible”.

`CNC(=O)C(C)C1C(O)=C(C(=O)/C=C/C(C)=C/C(C)C2OC3(C)OC(C=CC34CO4)C2C)C(=O)N1C1CCC(O)C(C)O1` (centres unmarked) [streptolydigin]: in [13], the “inhibition of bacterial RNA polymerase” value is listed as “inhibitor of bacterial RNA polymerase in a manner similar to streptolydigin”.

Turning to `COC(=O)C1C(C)OC2(C)CC(=O)C3OC12OC(C(C)/C=C(C)/C=C/C(=O)C1=C(O)CNC1=O)C3C` (centres unmarked) [Bu-2313B (Na salt)], the mean score is on record as 3.4 in data set [14] (oral, 6.3 × 5 mg/kg); 3.0 in data set [14] (oral, 25 × 5 mg/kg); 2.4 in data set [14] (oral, 100 × 5 mg/kg); 4.0 in data set [14] (oral, […] 5 mg/kg); 4.0 in data set [14] (subcutaneous, 0.8 × 5 mg/kg); 3.4 in [14] (subcutaneous, 3.1 × 5 mg/kg). Moreover, the mean score in data set [14] (subcutaneous, 50 × 5 mg/kg) was determined as 2.2; in data set [14] (subcutaneous, […] 5 mg/kg), 2.8. Further, the sum of score in data set [14] (oral, 6.3 × 5 mg/kg) amounted to 17; in data set [14] (oral, 25 × 5 mg/kg), 15; in [14] (oral, 100 × 5 mg/kg), 12; in data set [14] (oral, […] 5 mg/kg), 20; in data set [14] (subcutaneous, 0.8 × 5 mg/kg) it was 20; in data set [14] (subcutaneous, 3.1 × 5 mg/kg), 17. Moreover, the sum of score in [14] (subcutaneous, 50 × 5 mg/kg) is 11; in data set [14] (subcutaneous, […] 5 mg/kg), 14.

With `CCC[C@@H]1C[C@@H](C(=O)N[C@@H]([C@H]2O[C@H](SC)[C@H](O)[C@@H](O)[C@H]2O)[C@H](C)Cl)N(C)C1` [Clindamycin], the mean score is recorded as 2.6 in [14] (oral, 6.3 × 5 mg/kg); 1.8 in data set [14] (oral, 25 × 5 mg/kg); 4.0 in [14] (oral, […] 5 mg/kg); 4.0 in [14] (subcutaneous, 0.8 × 5 mg/kg); 2.0 in [14] (subcutaneous, 3.1 × 5 mg/kg); 0.8 in data set [14] (subcutaneous, 50 × 5 mg/kg). The compound further gave a mean score in data set [14] (subcutaneous, […] 5 mg/kg) of 1.4. For the same compound, the sum of score was determined as 13 in data set [14] (oral, 6.3 × 5 mg/kg); 9 in [14] (oral, 25 × 5 mg/kg); 2 in data set [14] (oral, 100 × 5 mg/kg); 20 in [14] (oral, […] 5 mg/kg); 20 in data set [14] (subcutaneous, 0.8 × 5 mg/kg); 10 in data set [14] (subcutaneous, 3.1 × 5 mg/kg). Further, the sum of score in data set [14] (subcutaneous, 50 × 5 mg/kg) is reported as 4; in [14] (subcutaneous, […] 5 mg/kg), 7. In data set [6], this compound came in with an MIC of 0.05 µg/mL (≈ 0.118 µM).

As for `Cc1ncc([N+](=O)[O-])n1CCO` [Flagyl], the mean score in data set [14] (oral, 6.3 × 5 mg/kg) stood at 3.4; in data set [14] (oral, 25 × 5 mg/kg), 2.6; in [14] (oral, 100 × 5 mg/kg), 1.6; in data set [14] (oral, […] 5 mg/kg) it was 4.0; in [14] (subcutaneous, 0.8 × 5 mg/kg), 4.0; in [14] (subcutaneous, 3.1 × 5 mg/kg) it was 3.4. Also, the mean score in [14] (subcutaneous, 50 × 5 mg/kg) is listed as 2.0; in data set [14] (subcutaneous, […] 5 mg/kg), 2.4. Besides, the sum of score stood at 17 in [14] (oral, 6.3 × 5 mg/kg); 13 in [14] (oral, 25 × 5 mg/kg); 8 in [14] (oral, 100 × 5 mg/kg); 20 in data set [14] (oral, […] 5 mg/kg); 20 in [14] (subcutaneous, 0.8 × 5 mg/kg); 17 in [14] (subcutaneous, 3.1 × 5 mg/kg). In addition, the sum of score in [14] (subcutaneous, 50 × 5 mg/kg) stood at 10; in data set [14] (subcutaneous, […] 5 mg/kg) it was 12. Moreover, the “absorption relative to Bu-2313B” value in [15] is reported as “better absorptions than Bu-2313B”.

Turning to `CC(/C=C/C(=O)C1=C(O)CNC1=O)=C\C(C)C1OC2(C)OC(C(=O)C3OC32C)C1C` (centres unmarked) [Tirandamycin], the “inhibition of bacterial RNA polymerase” value in data set [13] is “inhibitor of bacterial RNA polymerase”. The minimum inhibitory concentration (MIC) in data set [16] is 100 µg/mL (≈ 240 µM); in data set [6] (setting [17]), 0.8 µg/mL (≈ 1.92 µM); in data set [8], 0.8 µg/mL (≈ 1.92 µM).
